Measured values reported in US20250388604A1, “Compounds and Their Use as PDE4 Activators” (Mironid Limited, priority 2022, published 2025).

System: m-IMCD3 cells
Assay: Inhibition of PGE2-stimulated in vitro cyst formation in m-IMCD3 cells
Assay type: cell-based, mouse
Conditions: Mus musculus, mIMCD3, 144 h, mean cyst area, 100% for (DMSO + PGE2) and 0% for DMSO control, 6 days of culture; for activity at 10 µM: read-out: % Cyst area after incubation with 10 μM test compound; for activity at 3 µM: read-out: % Cyst area after incubation with 3 μM test compound
In short: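 Mean cyst area after 6 days, expressed relative to DMSO+PGE2 (100%) and DMSO alone (0%), from z-stack images. Mouse m-IMCD3 spheroids grew in collagen I/Matrigel gels and received PGE2 (100 nM final) with test compound (0.1% DMSO) starting 18–24 h post-plating, media refreshed at day 2 or 3.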

Compound | activity at 10 µM | activity at 3 µM
O=C(Cc1ccnc(F)c1)N1CCc2nc(N3C4CCC3CNC4)sc2C1 [Example 141, 1-(2-(3,8-diazabicyclo[3.2.1]octan-8-yl)-6,7-dihydrothiazolo[5,4-c]pyridin-5(4H)-yl)-2-(2-fluoropyridin-4-yl)ethan-1-one] | -7% | –
O=C(CCc1ccc(F)nc1)N1CCc2nc(N3C4CCC3CNC4)sc2C1 [Example 142, 1-(2-(3,8-diazabicyclo[3.2.1]octan-8-yl)-6,7-dihydrothiazolo[5,4-c]pyridin-5(4H)-yl)-3-(6-fluoropyridin-3-yl)propan-1-one] | -4% | –
COc1cc(F)ccc1OCC(=O)N1CCc2nc(N3C4CCC3CNC4)sc2C1 [Example 143, 1-(2-(3,8-diazabicyclo[3.2.1]octan-8-yl)-6,7-dihydrothiazolo[5,4-c]pyridin-5(4H)-yl)-2-(4-fluoro-2-methoxyphenoxy)ethan-1-one] | 2% | –
O=C(Cc1ccc(F)cc1F)N1CCc2nc(N3C4CCC3CNC4)sc2C1 [Example 144, 1-(2-(3,8-diazabicyclo[3.2.1]octan-8-yl)-6,7-dihydrothiazolo[5,4-c]pyridin-5(4H)-yl)-2-(2,4-difluorophenyl)ethan-1-one] | 13% | –
Cc1cc(F)ccc1OCC(=O)N1CCc2nc(N3C4CCC3CNC4)sc2C1 [Example 145, 1-(2-(3,8-diazabicyclo[3.2.1]octan-8-yl)-6,7-dihydrothiazolo[5,4-c]pyridin-5(4H)-yl)-2-(4-fluoro-2-methylphenoxy)ethan-1-one] | 17% | –
CC(C)(C(=O)N1CCc2nc(N3C4CCC3CNC4)sc2C1)C1CCCC1 [Example 146, 1-(2-(3,8-diazabicyclo[3.2.1]octan-8-yl)-6,7-dihydrothiazolo[5,4-c]pyridin-5(4H)-yl)-2-cyclopentyl-2-methylpropan-1-one] | 16% | –
COc1cc(F)ccc1CCC(=O)N1CCc2nc(N3C4CCC3CNC4)sc2C1 [Example 147, 1-(2-(3,8-diazabicyclo[3.2.1]octan-8-yl)-6,7-dihydrothiazolo[5,4-c]pyridin-5(4H)-yl)-3-(4-fluoro-2-methoxyphenyl)propan-1-one] | 9% | –
O=C(COc1ccc(F)cc1F)N1CCc2nc(N3C4CCC3CNC4)sc2C1 [Example 148, 1-(2-(3,8-diazabicyclo[3.2.1]octan-8-yl)-6,7-dihydrothiazolo[5,4-c]pyridin-5(4H)-yl)-2-(2,4-difluorophenoxy)ethan-1-one] | 3% | –
O=C(COC1CCCC1)N1CCc2nc(N3C4CCC3CNC4)sc2C1 [Example 149, 1-(2-(3,8-diazabicyclo[3.2.1]octan-8-yl)-6,7-dihydrothiazolo[5,4-c]pyridin-5(4H)-yl)-2-(cyclopentyloxy)ethan-1-one] | -2% | –
CC1(C(=O)N2CCc3nc(N4C5CCC4CNC5)sc3C2)CCCC1 [Example 150, (2-(3,8-diazabicyclo[3.2.1]octan-8-yl)-6,7-dihydrothiazolo[5,4-c]pyridin-5(4H)-yl)(1-methylcyclopentyl)methanone] | 1% | –
O=C(N1CCc2nc(N3C4CCC3CNC4)sc2C1)C1(F)CCCC1 [Example 151, (2-(3,8-diazabicyclo[3.2.1]octan-8-yl)-6,7-dihydrothiazolo[5,4-c]pyridin-5(4H)-yl)(1-fluorocyclopentyl)methanone] | 5% | –
N#CC(C(=O)N1CCc2nc(N3C4CCC3CNC4)sc2C1)C1CCCC1 (centres unmarked) [Example 152, 3-(2-(3,8-diazabicyclo[3.2.1]octan-8-yl)-6,7-dihydrothiazolo[5,4-c]pyridin-5(4H)-yl)-2-cyclopentyl-3-oxopropanenitrile] | 4% | –
Cc1cc(CC(=O)N2CCc3nc(N4C5CCC4CNC5)sc3C2)cc(C)n1 [Example 153, 1-(2-(3,8-diazabicyclo[3.2.1]octan-8-yl)-6,7-dihydrothiazolo[5,4-c]pyridin-5(4H)-yl)-2-(2,6-dimethylpyridin-4-yl)ethan-1-one] | 31% | –
CCC(C)(C)C(=O)N1CCc2nc(N3C4CCC3CNC4)sc2C1 [Example 154, 1-(2-(3,8-diazabicyclo[3.2.1]octan-8-yl)-6,7-dihydrothiazolo[5,4-c]pyridin-5(4H)-yl)-2,2-dimethylbutan-1-one] | -13% | –
O=C(CC1CCC2(CC1)COC2)N1CCc2nc(N3C4CCC3CNC4)sc2C1 [Example 155, 1-(2-(3,8-diazabicyclo[3.2.1]octan-8-yl)-6,7-dihydrothiazolo[5,4-c]pyridin-5(4H)-yl)-2-(2-oxaspiro[3.5]nonan-7-yl)ethan-1-one] | -3% | –
Cc1cc(F)ccc1CC(=O)N1CCc2nc(N3C4CCC3CNC4)sc2C1 [Example 156, 1-(2-(3,8-diazabicyclo[3.2.1]octan-8-yl)-6,7-dihydrothiazolo[5,4-c]pyridin-5(4H)-yl)-2-(4-fluoro-2-methylphenyl)ethan-1-one] | 0% | –

Compound | activity at 10 µM | activity at 3 µM
COC(C(=O)N1CCc2nc(N3C4CCC3CNC4)sc2C1)C1CCCC1 (centres unmarked) [Example 157, 1-(2-(3,8-diazabicyclo[3.2.1]octan-8-yl)-6,7-dihydrothiazolo[5,4-c]pyridin-5(4H)-yl)-2-cyclopentyl-2-methoxyethan-1-one] | – | 17%
O=C(CC12CCC(CC1)C2)N1CCc2nc(N3C4CCC3CNC4)sc2C1 [Example 160, 1-(2-(3,8-diazabicyclo[3.2.1]octan-8-yl)-6,7-dihydrothiazolo[5,4-c]pyridin-5(4H)-yl)-2-(bicyclo[2.2.1]heptan-1-yl)ethan-1-one] | – | -2%
CC(C)C(C)(C)C(=O)N1CCc2nc(N3C4CCC3CNC4)sc2C1 [Example 161, 1-(2-(3,8-diazabicyclo[3.2.1]octan-8-yl)-6,7-dihydrothiazolo[5,4-c]pyridin-5(4H)-yl)-2,2,3-trimethylbutan-1-one] | – | -3%
O=C(C1CC12CCCC2)N1CCc2nc(N3C4CCC3CNC4)sc2C1 (centres unmarked) [Example 162, (2-(3,8-diazabicyclo[3.2.1]octan-8-yl)-6,7-dihydrothiazolo[5,4-c]pyridin-5(4H)-yl)(spiro[2.4]heptan-1-yl)methanone] | – | 14%
O=C(COc1ccccc1OC(F)(F)F)N1CCc2nc(N3C4CCC3CNC4)sc2C1 [Example 164, 1-(2-(3,8-diazabicyclo[3.2.1]octan-8-yl)-6,7-dihydrothiazolo[5,4-c]pyridin-5(4H)-yl)-2-(2-(trifluoromethoxy)phenoxy)ethan-1-one] | – | -7%
O=C(Cc1ccc(F)nc1)N1CCc2nc(N3C4CCC3CNC4)sc2C1 [Example 165, 1-(2-(3,8-diazabicyclo[3.2.1]octan-8-yl)-6,7-dihydrothiazolo[5,4-c]pyridin-5(4H)-yl)-2-(6-fluoropyridin-3-yl)ethan-1-one] | – | 2%
N#Cc1ccccc1OCC(=O)N1CCc2nc(N3C4CCC3CNC4)sc2C1 [Example 167, 2-(2-(2-(3,8-diazabicyclo[3.2.1]octan-8-yl)-6,7-dihydrothiazolo[5,4-c]pyridin-5(4H)-yl)-2-oxoethoxy)benzonitrile] | – | 19%
COc1cccc(C#N)c1OCC(=O)N1CCc2nc(N3C4CCC3CNC4)sc2C1 [Example 168, 2-(2-(2-(3,8-diazabicyclo[3.2.1]octan-8-yl)-6,7-dihydrothiazolo[5,4-c]pyridin-5(4H)-yl)-2-oxoethoxy)-3-methoxybenzonitrile] | – | -3%
CC(OC1CCCC1)C(=O)N1CCc2nc(N3C4CCC3CNC4)sc2C1 (centres unmarked) [Example 169, 1-(2-(3,8-diazabicyclo[3.2.1]octan-8-yl)-6,7-dihydrothiazolo[5,4-c]pyridin-5(4H)-yl)-2-(cyclopentyloxy)propan-1-one] | – | -9%
O=C([C@@H](O)C1CCCC1)N1CCc2nc(N3C4CCC3CNC4)sc2C1 [Example 170, (2S)-1-(2-(3,8-diazabicyclo[3.2.1]octan-8-yl)-6,7-dihydrothiazolo[5,4-c]pyridin-5(4H)-yl)-2-cyclopentyl-2-hydroxyethan-1-one] | – | 5%
COc1cccc(OC)c1OCC(=O)N1CCc2nc(N3C4CCC3CNC4)sc2C1 [Example 172, 1-(2-(3,8-diazabicyclo[3.2.1]octan-8-yl)-6,7-dihydrothiazolo[5,4-c]pyridin-5(4H)-yl)-2-(2,6-dimethoxyphenoxy)ethan-1-one] | – | 10%
O=C(COc1ccccc1C(F)F)N1CCc2nc(N3C4CCC3CNC4)sc2C1 [Example 173, 1-(2-(3,8-diazabicyclo[3.2.1]octan-8-yl)-6,7-dihydrothiazolo[5,4-c]pyridin-5(4H)-yl)-2-(2-(difluoromethyl)phenoxy)ethan-1-one] | – | -2%
CCC(C)(C)CC(=O)N1CCc2nc(N3C4CCC3CNC4)sc2C1 [Example 174, 1-(2-(3,8-diazabicyclo[3.2.1]octan-8-yl)-6,7-dihydrothiazolo[5,4-c]pyridin-5(4H)-yl)-3,3-dimethylpentan-1-one] | – | 3%
CC(C)(CC(=O)N1CCc2nc(N3C4CCC3CNC4)sc2C1)C(F)F [Example 175, 1-(2-(3,8-diazabicyclo[3.2.1]octan-8-yl)-6,7-dihydrothiazolo[5,4-c]pyridin-5(4H)-yl)-4,4-difluoro-3,3-dimethylbutan-1-one] | – | -5%
CC(C)(C)[C@@H](O)C(=O)N1CCc2nc(N3C4CCC3CNC4)sc2C1 [Example 176, (2R)-1-(2-(3,8-diazabicyclo[3.2.1]octan-8-yl)-6,7-dihydrothiazolo[5,4-c]pyridin-5(4H)-yl)-2-hydroxy-3,3-dimethylbutan-1-one] | – | 12%
O=C([C@H](O)C1CCCCC1)N1CCc2nc(N3C4CCC3CNC4)sc2C1 [Example 177, (2R)-1-(2-(3,8-diazabicyclo[3.2.1]octan-8-yl)-6,7-dihydrothiazolo[5,4-c]pyridin-5(4H)-yl)-2-cyclohexyl-2-hydroxyethan-1-one] | – | -2%
